For orientation: AUC means the area under the concentration-time curve, a measure of exposure. Higher therefore signals high exposure. Broadly, the Cmax is the peak of the concentration-time curve. For orientation: MRT means a mean duration of stay, worked out from the concentration-time curve. Broadly, the half-life is how long it takes for the measured level to halve. A high value points to slow loss.

One series relates to RPMI-8226 cells. Nature of the series: Mitochondrial membrane potential (safranin O). Format: cell-based, human. The protocol: RPMI-8226 cells (2×10^7) were resuspended in buffer containing 130 mM KCl, 5 mM malate, 5 mM glutamate, 2 mM KPO4, 5 mM HEPES, pH 7.0 with 5 μM safranin O dye, in a stirred cuvette at 28° C. Fluorescence was measured at 495 nm excitation, 586 nm emission on a RF-5301PC spectrofluorophotometer (Shimadzu, Japan). Safranin O fluorescence was quenched following addition of 0.0025% digitonin as the dye accumulates in active mitochondria (Fiskum et al., Methods Enzymol. 322:222-234, 2000). Depolarization of the mitochondrial inner membrane caused a shift of safranin O localization from mitochondria to cytoplasm, evident as increased fluorescence.

Series [1] is described as follows: Pharmacokinetic evaluation in male CD2F1 mice. In kind it is in vivo, mouse. The protocol: To determine the pharmacokinetics of 2-OMe antimycin A1 in male CD2F1 mice, groups of three were dosed either intravenously (tail vein) or intraperitoneally with 2-OMe antimycin A1 (20 mg/kg) in a vehicle of Cremaphor (5%) and ethanol (5%) in 0.9% saline. For both dosing routes, the volume administered was 5 ml/kg body weight. At various times, samples were collected by cardiac puncture into tubes containing NaF/EDTA (dry powders).
Pharmacokinetic values were derived with WinNonlin® software (Mountain View, Calif.).

Series [2] deals with mitochondria with normal levels of Bcl-xL expression. Put plainly: JC-1 membrane potential of isolated mitochondria. The arrangement: species or system murine. The protocol:
Isolated mitochondria were loaded with JC-1 prior to treatment, and mitochondrial labeling was determined using FACS. […] Antimycin A-treated mitochondria with high levels of Bcl-xL had lower levels of JC-1 staining than parallel samples treated with CCCP. Uncoupled mitochondria still retain a significant Donnan potential because of trapped anionic species and it is likely that antimycin-induced PT and/or swelling of mitochondria led to a further reduction of this residual potential.
As observed for the parent compound, antimycin A3, mitochondria with normal levels of BCl-xL expression were not affected by the 2-methoxy analog.

Series [3] can be described thus: Binding to plasma proteins (ultrafiltration). Format: in vitro ADME, dog. As to conditions: dog, plasma, presence of NaF+EDTA, read-out: Protein binding, Dog. The protocol:
Solutions of 2-OMe antimycin A3 were diluted with plasma (dog or human) containing NaF+EDTA to final concentrations of 1.0 or 0.2 μg/ml. Controls were diluted with water to the same final concentrations. These preparations were incubated at 37° C. for 20 min, at which time portions were taken and placed in the sample reservoirs of Amicon Centrifree® ultrafiltration systems (Millipore Co., Bedford, Mass.). At 37° C., the filter systems were centrifuged until the reservoirs were dry. From each filtrate, portions were taken for analysis by HPLC. The amounts present were designated as “free drug” (F). The concentrations of the unfiltered solutions were also determined by triplicate analyses. This amount represented the “total drug” concentration (T). The percentage of 2-OMe antimycin A3 bound to plasma proteins was calculated by the following formula: % bound=((T−F)/T)×100
Similar experiments were performed for 2-OMe antimycin A3 in dog or rat plasma in the absence of NaF/EDTA.

Another series is described as follows: S9 metabolism. As to conditions: pH 7.4. In kind it is in vitro ADME, human. From the text:
All chemicals and solvents used for sample preparation and HPLC analysis were analytical grade. Acetonitrile, methanol, and phosphoric acid were purchased from Fisher Scientific (Atlanta, Ga.). Hepatic S9 fractions from male CD2F1 mice, male Sprague Dawley rats, male dogs, and male humans were purchased from In Vitro Technologies (Boston, Mass.). The National Cancer Institute provided samples of the test compounds and male CD2F1 mice. Fischer 344 rats with implanted jugular cannulas were obtained from Charles River Laboratories (Cambridge, Mass.). All animal use and care procedures were approved by the Institutional Committee on Animal Use and Care at the University of Alabama at Birmingham and conformed to the guidelines found in Guide for the Care and Use of Laboratory Animals, National Academy Press, 1996.
To evaluate metabolism of the test compounds by S9 fractions from various species, reaction systems maintained at 37° C. contained 2-OMe-A3 (500 ng/ml) and S9 (1 mg protein/ml) in 100 mM Tris buffer (pH 7.4). At selected times, triplicate portions of the mixtures were removed and processed for analysis, as described above.

Series [4] relates to TABX1A cells (under-expressing Bcl-xL). Put plainly: Cell viability by trypan blue dye exclusion. As to conditions: 2 μg/ml, without fructose, six hours. From the text:
Briefly, a DNA fragment encoding the full-length mouse BCl-xL cDNA was isolated from the plasmid PBS.BCL-xL (Tzung et al., Am. J. Path. 150:1985-1995, 1997, incorporated herein by reference in its entirety) by digestion with the restriction endonuclease EcoRI. This EcoRI fragment was cloned into the EcoRI site of the mammalian expression vector pSFFV (Fuhlbrigge et al., Proc. Nat. Acad. Sci. USA 85:5649-5653, 1988) in both sense and antisense orientations, to form expression plasmids pSFFV.Bcl-xL(sense) or pSFFV.Bcl-xL(antisense), respectively. The tumorigenic murine hepatocyte cell line TAMH was transfected by lipofection (Lipofectamine, Life Technologies, Rockville, Md., according to the manufacturer's recommendations) with the plasmids pSFFV.neo (the control), pSFFV.Bcl-xL(sense) or pSFFV.Bcl-xL(antisense). […] Transfectants were selected for the acquisition of neomycin resistance by growing cells in the presence of 750 μg/ml of G418. Bulk transfectants were cloned by limiting dilution and individual clones were screened by immunoblot analysis to determine the level of BCl-xL protein expression as described below.
Selected transfectants were then tested for whole cell sensitivity to several apoptotic agents. Transfected cells were cultured to reach approximately 80% confluency prior to plating an equal number of cells from selected clones on 12-well tissue culture plates. […] Cell viability was determined by trypan blue dye exclusion. The percentage of viable cells was calculated by the number of viable cells (treated with a particular apoptogenic agent) divided by the number in the control group (untreated).
TABX2S cells and TABX1A cells were also examined for the effects of various mitochondrial inhibitors. […] At various time points after drug treatment, cells were trypsinized, and cell viability was determined by trypan blue dye exclusion. The number of viable cells were counted and normalized to control group (i.e., % control=number of viable cells (treated group)/number of viable cells (control group)×100).

Where “and” joins values, the source holds several entries; their conditions need not be identical. Identical values can stand only once.

With 2-methoxy antimycin A [2-OMeA], the “acute changes in mitochondrial membrane potential” value in the series with RPMI-8226 cells was “No acute changes”.

Take `CCCCCC[C@H]1C(=O)O[C@H](C)[C@H](NC(=O)c2cccc(NC=O)c2OC)C(=O)O[C@@H](C)[C@@H]1OC(=O)CC(C)C` [2-OMeA1, 2-methoxy antimycin A1]: in series [1] (Intraperitoneal dose 20 mg/kg), the exposure (AUC) was found to be 2410 ng·h/mL, the Cmax was determined as 483 ng/mL, the mean residence time MRT came to 474 min and the T1/2 was determined as 183 min. In addition, in series [1] (Intravenous dose 20 mg/kg), the AUC amounted to 3720 ng·h/mL, the Cmax worked out at 8000 ng/mL and the MRT is given as 27.6 min. Also, the T1/2 in series [1] (Intravenous dose 20 mg/kg, 20 mg/kg) was 19 min and 19.2 min. For the same molecule, in series [1] (intraperitoneal 20 mg/kg), the “plasma concentration at 24 hr after dosing” value amounted to 18 ng/mL and the “time of maximum plasma level” value came out at 30 min. In addition, in series [1] (intravenous 20 mg/kg), the “plasma concentration at 30 min after dosing” value worked out at 1040 ng/mL, the “plasma concentration at 30 min as share of that at 5 min” value is “about 15%” and the “plasma concentration at 24 hr after dosing” value amounted to 15 ng/mL.

Take `CCCC[C@H]1C(=O)OC(C)[C@H](NC(=O)c2cccc(NC=O)c2OC)C(=O)O[C@@H](C)C1OC(=O)CC(C)C` (stereo partly shown) [2-OMeA3, Antimycin A3 methyl ether]: in series [2], the “mitochondrial depolarization (JC-1)” value is “not affected”. The fraction unbound at 20 min, 1000 ng/ml in series [3] was less than 0.01. Also, the half-life entry in “S9 metabolism” (500 ng/ml, 37° C.) is on record as “only slightly less than that for the control”. Also, the half-life at 2000 ng/ml in “S9 metabolism” (male, human, hepatic S9 fraction, 2000 ng/ml) was approximately 10 min.

In series [4], antimycin A gave a survival of 87%.

The record behind these values is US20050239873A1 (priority 1999, published 2005).
